Where “and” joins values, the source holds several entries; their conditions need not be identical. Equal values may be shown once. Ends that are not written are not given here. Peptide text beside a SMILES is read from it. * marks the point of attachment. Acm = CC(=O)NC*
What was measured:
[1] = Safety of the peptides: bolus tail vein administration to rat, observation until five days, dissection; assay type: in vivo; conditions: for abnormality in tissue checked with the naked eye (hemostatis, pigmentation, discoloration): dissection five days after 8.3 μg per 1.0 g of rat; for abnormality in tissue checked with the naked eye (hemostatis, pigmentation, discoloration) / extreme change in weight, i.e., weight gain or loss: tail vein; for symptoms such as slobber, vomiting, ocular proptosis, and behavioral abnormality: just after bolus tail vein administration, 8.3 μg per 1.0 g of rat; for extreme change in weight, i.e., weight gain or loss: until five days after 8.3 μg per 1.0 g of rat
Protocol: Assuming that clinical dosage to human is 1.0 mg/60 kg, bolus administration of Peptide-1, Peptide 4 and Peptide-5 in an amount of 8.3 μg per 1.0 g of rat and physiological saline as control were made respectively to the tail vein of the rat. Immediately after the administration, behavior of the rat was observed. The observation was continued until five days later; zero minute, ten minutes, three hours, six hours, one day, two days, three days, four days, and five days later. Just after the peptide administration, symptoms such as slobber, vomiting, ocular proptosis, and behavioral abnormality were not observed. Furthermore, extreme change in weight, i.e., weight gain or loss was not observed until five days later. After weighing five days later, the rats were dissected. Abnormality in tissue was checked with the naked eye; abnormality in any tissue was not noted such as hemostatis, pigmentation, or discoloration. These gave estimation that more than 1,000 times administration of the assumed clinical dosage would be safe.

[2] = tested on: inflammation site of inflammatory model rats; assay: Imaging of inflammation sites using technetium-99m labeled peptide (turpentine oil inflammation model rats, gamma camera); assay type: in vivo, Sparague-Davley Rats; conditions: 37-74 MBq tail vein, mean ± standard error, three rats
Protocol: An amount of 240-300 nmol of Peptide-2 obtained in EXAMPLE 2 was taken into each vial, and a volume of a 0.1M phosphate buffer solution (pH 8.0) was added thereto to adjust the whole […] Atmosphere in the vial was replaced with argon; then 180-300 nmol of dithiothreitol was added thereto, The mixture was then allowed to react for one hour at room temperature. Next, 120 nmol of stannous chloride and 740-1110 MBq of sodium pertechnetate were added. The mixture was left for one hour under gentle agitation. Peptide-2 labeled with technetium-99m was yielded. Peptide labeled had radiochemical purity not less than 90%.
Experiments were made for all the peptides those prepared in EXAMPLEs 4, 5, 6 and 7. Each of the peptides was taken, in an amount of 0.2-1.0 μmol, into a vial respectively, and a volume of a 0.1M phosphate buffer solution (pH 8.0) was added thereto to adjust the whole volume to 500 μl. Atmosphere in the respective vial was replaced with argon. To each vial, 500 μl of 1.5-2.2 GBq/ml glucoheptanate labeled with technetium-99m yielded in EXAMPLE 16 was added and quickly agitated. Thereafter, the mixture was allowed to react for 20 minutes in a boiling water bath. Labeling percentage of all the experimented peptides after cooling was 90-95% according to TLC.
(§1) To the right femoral part of Sparague-Davley Rats weighing about 220 g, 100 μl of turpentine oil was subcutaneously administered. After 24 hours, when inflammation was clearly observed, Ravonal anesthesia was applied; then, Peptide-1-DTPA-indium-111 and Peptide-3-Sulfo-SMCC-CHI-DTPA-indium-111 obtained in EXAMPLE 14 were respectively administered in an amount of 3.7 MBq-7.4 MBq to the respective tail vein. Images were obtained with gamma camera one, three, and six hours later. A site of interest was set on the image, where the ratio ([T]/[B] ratio) of total counts for the inflammation site [T] to total counts for the corresponding normal site of the opposite leg [B] was determined. The [T]/[B] ratio, one hour after the administration, was 2.63 for Peptide-1-DTPA-indium-111 and 2.09 for Peptide-3-DTPA-indium-111, whereby the focal site was evidently imaged.
After Ravonal anesthesia was applied to the model rats described in EXAMPLE 18, 37-74 MBq of technetium-99m labeled Peptide-2 obtained in EXAMPLE 15, Peptide-4, Peptide-5, Peptide-6 and Peptide-7 obtained in EXAMPLE 17 were each administered to the respective tail vein. Images were obtained with gamma camera 30 minutes and one, three, and six hours later respectively. A site of interest was set on the image and the [T]/[B] ratio was determined. The [T]/[B] ratio, one hour after the administration, was 3.35 for Peptide-2, 4.98 for Peptide-6, 3.36 for Peptide-7, 4.27 for Peptide-4 and 4.41 for Peptide-5 whereby the focal site was evidently imaged.

[3] = tested on: focal region of model rats with infectious disease (Staphylococcus aureus); assay: Imaging of rat model with infectious disease (Staphylococcus aureus) using technetium-99m labeled peptide; assay type: in vivo, Sparague-Davely Rats; conditions: 37-74 MBq tail vein, mean ± standard error
Protocol: In 1.0 mL of physiological saline, 10^8 of viable microbe cells of Staphylococcus aureus were suspended. An aliquot of 100 μl was administered intramuscularly to the right femoral region of Sparague-Davely Rats weighing about 220 g. After 24 hours, Ravonal anesthesia was applied to the model rats that had clearly evident inflammation; then, 37-74 MBq of technetium-99m labeled Peptide-6 obtained in […] was administered to the tail vein. Images were obtained with gamma camera one, three, and six hours later respectively. A site of interest was set on the image, and the [T]/[B] ratio was determined.

[4] = tested on: inflammation site of inflammation model rats; assay: Imaging of inflammation sites using indium-111 labeled peptide (turpentine oil inflammation model rats, gamma camera); assay type: in vivo, Sparague-Davley Rats; conditions: 3.7-7.4 MBq tail vein, mean ± standard error, three rats
Protocol: Peptide-1-DTPA obtained in EXAMPLE 8, in an amount of 100 through 200 nmol was adjusted to pH 5.7 in a 0.1M citrate buffer solution, and then 37 to 74 MBq of indium (^111 In) chloride was added thereto. After agitation, the solution was left as such for 15 minutes. A part of the solution was taken and checked for the labeling percentage by electrophoresis. The radiochemical purity of the target compound was 98%. Peptide-3-Sulfo-SMCC-CHI-DTPA obtained in EXAMPLE 10 was also labeled with In-111 in the same way as above, and the radiochemical purity of the target compound was 90%.
as §1

[5] = assumed clinical dosage to human 1.0 mg/60 kg, estimate from rat observation

Row | Compound | abnormality in tissue checked with the naked eye (hemostatis, pigmentation, discoloration) [1] | symptoms such as slobber, vomiting, ocular proptosis, and behavioral abnormality [1] | extreme change in weight, i.e., weight gain or loss [1] | [T]/[B] ratio of Tc-99m labeled peptide in inflammatory model rats ([2]; 1 hr. after administration) | [T]/[B] ratio of Tc-99m labeled peptide in inflammatory model rats ([2]; 3 hrs. after administration) | [T]/[B] ratio of Tc-99m labeled peptide in inflammatory model rats ([2]; 6 hrs. after administration) | further results
1 | CC(C)C[C@H](NC(=O)[C@H](CC(C)C)NC(=O)[C@H](CCC(=O)O)NC(=O)[C@@H]1CCCN1C(=O)CNC(=O)CNC(=O)[C@@H](N)CCCCN)C(=O)NCC(=O)NCC(=O)N1CCC[C@H]1C(=O)N[C@@H](CO)C(=O)N[C@H](C(=O)O)C(C)C [Peptide-1, KGGPELLGGPSV] (H-KGGPELLGGPSV-OH) | not noted | not observed | not observed | – | – | – | estimated safe administration relative to the assumed clinical dosage ([1]; rat, in vivo): more than 1,000 times
2 | C(Acm)GC(Acm)GGKTKPREQQYNSTYRVV (also: technetium-99m label) [Peptide-5] | not noted | not observed | not observed | 4.41 and 4.41 ± 0.62 | 3.85 ± 0.63 | – | estimated safe administration relative to the assumed clinical dosage [1, 5]: more than 1,000 times; [T]/[B] ratio of Tc-99m labeled peptide in inflammatory model rats ([2]; 30 mins after administration): 2.61 ± 0.08
3 | CGCGGLLGGPSV (cysteine pairing not given here; also: technetium-99m label) [Peptide-2] | – | – | – | 3.35 and 3.35 ± 0.33 | 2.78 ± 0.23 | 2.82 ± 0.17 | –
4 | (PELLGGPSV)×4 in parallel (K)×2 in parallel (KGGC(Acm)GC(Acm)) (PELLGGPSVPELLGGPSVPELLGGPSVPELLGGPSVKKKGGC(Acm)GC(Acm); also: branched Lys scaffold carrying four PELLGGPSV arms) [Peptide-6] | – | – | – | 4.98 and 4.98 ± 0.23 | 4.61 ± 0.49 | 3.20 ± 0.39 | [T]/[B] ratio of Tc-99m labeled peptide in model rats with infectious disease ([3]; 1 hr. after administration, S. aureus intramuscular, right femoral region): 1.92 and 1.92 ± 0.10; [T]/[B] ratio of Tc-99m labeled peptide in model rats with infectious disease ([3]; 3 hrs. after administration, S. aureus model): 1.58 ± 0.05; [T]/[B] ratio of Tc-99m labeled peptide in model rats with infectious disease ([3]; 6 hrs. after administration, S. aureus model): 1.52 ± 0.17
5 | CC(C)C[C@H](NC(=O)[C@@H](N)CC(C)C)C(=O)NCC(=O)NCC(=O)N1CCC[C@H]1C(=O)N[C@@H](CO)C(=O)N[C@H](C(=O)N[C@@H](CS)C(=O)O)C(C)C [Peptide-3, LLGGPSVC] (H-LLGGPSVC-OH) | – | – | – | – | – | – | [T]/[B] ratio of In-111 labeled peptides in inflammation model rats ([4]; 1 hr. after administration, inflammation site vs opposite normal leg): 2.09 ± 0.18; [T]/[B] ratio of In-111 labeled peptides in inflammation model rats ([4]; 3 hrs. after administration): 2.46 ± 0.29; [T]/[B] ratio of In-111 labeled peptides in inflammation model rats ([4]; 6 hrs. after administration): 2.78 ± 0.15
6 | C(Acm)GC(Acm)GG[(PELLGGPSV)×3 repeats in tandem]A (C(Acm)GC(Acm)GGPELLGGPSVPELLGGPSVPELLGGPSVA; also: technetium-99m label) [Peptide-7] | – | – | – | 3.36 and 3.36 ± 0.31 | 2.18 ± 0.39 | 2.26 ± 0.20 | –
7 | C(Acm) GC(Acm)GGGKEYKAKVSNKALPAPIEKTISK (C(Acm)GC(Acm)GGGKEYKAKVSNKALPAPIEKTISK; also: technetium-99m label) [Peptide-4] | not noted | not observed | not observed | 4.27 and 4.27 ± 0.26 | 3.10 ± 0.20 | – | estimated safe administration relative to the assumed clinical dosage [1, 5]: more than 1,000 times; [T]/[B] ratio of Tc-99m labeled peptide in inflammatory model rats ([2]; 30 mins after administration): 2.47 ± 0.17

— patent US5821330A, “Peptide having inflammation affinity and radioactive diagnostic containing the same” (Nihon Medi-Physics Co., Ltd., priority 1993, dated 1998)
